The values below come from paper PMC8402619 (Viruses, 2021).

One may read the IC50 as the midpoint of a concentration-inhibition curve. By inhibition is commonly meant the drop in the measured response relative to a control, in per cent. A low value points to a response near the control.

Type in all cases: in vitro ADME
The target of one series is T1, CYP1A2 (Homo sapiens, UniProt P05177).
T1 sequence (P05177 1-516): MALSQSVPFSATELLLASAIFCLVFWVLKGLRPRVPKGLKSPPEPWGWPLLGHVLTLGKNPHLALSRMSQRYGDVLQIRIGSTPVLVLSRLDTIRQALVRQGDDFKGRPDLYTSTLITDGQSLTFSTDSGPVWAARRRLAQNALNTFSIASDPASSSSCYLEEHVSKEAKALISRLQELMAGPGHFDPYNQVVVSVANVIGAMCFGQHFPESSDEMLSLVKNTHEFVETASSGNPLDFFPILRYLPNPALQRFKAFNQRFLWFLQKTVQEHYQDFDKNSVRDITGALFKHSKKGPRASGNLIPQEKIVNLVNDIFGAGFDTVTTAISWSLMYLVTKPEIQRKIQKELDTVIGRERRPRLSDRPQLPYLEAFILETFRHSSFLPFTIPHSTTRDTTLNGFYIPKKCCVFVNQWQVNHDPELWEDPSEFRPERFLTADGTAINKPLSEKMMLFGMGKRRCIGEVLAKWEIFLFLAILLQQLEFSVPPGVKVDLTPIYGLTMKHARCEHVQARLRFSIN
The series is described as follows: Time-dependent CYP inhibition in pooled human liver microsomes. (Microsomes from liver hold many membrane-bound enzymes, among them those of drug oxidation.)

Another series concerns the target MDR1 P-gp (Homo sapiens, UniProt P08183). Set-up: expressed in transfected cells; host or cells: LLC-PK1.
The target in the next series is T2, UGT1A1 (Homo sapiens, UniProt P22309).
T2 sequence (P22309 26-533): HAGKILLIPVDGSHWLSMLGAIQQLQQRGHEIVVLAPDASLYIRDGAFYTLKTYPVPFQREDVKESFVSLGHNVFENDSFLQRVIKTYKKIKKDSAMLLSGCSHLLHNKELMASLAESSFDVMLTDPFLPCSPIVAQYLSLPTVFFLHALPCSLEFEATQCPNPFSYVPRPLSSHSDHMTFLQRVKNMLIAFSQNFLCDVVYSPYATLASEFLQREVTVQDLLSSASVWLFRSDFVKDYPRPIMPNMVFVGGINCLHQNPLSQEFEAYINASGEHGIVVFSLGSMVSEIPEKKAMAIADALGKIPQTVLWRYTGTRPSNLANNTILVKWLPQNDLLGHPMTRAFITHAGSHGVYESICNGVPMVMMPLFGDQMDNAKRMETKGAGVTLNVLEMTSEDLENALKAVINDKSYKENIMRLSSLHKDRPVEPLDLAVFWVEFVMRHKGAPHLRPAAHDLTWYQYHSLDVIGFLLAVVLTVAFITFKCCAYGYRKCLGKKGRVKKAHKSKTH

The target in a further series is T3, BSEP (Homo sapiens, UniProt O95342).
T3 construct: purchased Thermo Fisher Scientific; host or cells: Sf9
T3 sequence (O95342 whole entry): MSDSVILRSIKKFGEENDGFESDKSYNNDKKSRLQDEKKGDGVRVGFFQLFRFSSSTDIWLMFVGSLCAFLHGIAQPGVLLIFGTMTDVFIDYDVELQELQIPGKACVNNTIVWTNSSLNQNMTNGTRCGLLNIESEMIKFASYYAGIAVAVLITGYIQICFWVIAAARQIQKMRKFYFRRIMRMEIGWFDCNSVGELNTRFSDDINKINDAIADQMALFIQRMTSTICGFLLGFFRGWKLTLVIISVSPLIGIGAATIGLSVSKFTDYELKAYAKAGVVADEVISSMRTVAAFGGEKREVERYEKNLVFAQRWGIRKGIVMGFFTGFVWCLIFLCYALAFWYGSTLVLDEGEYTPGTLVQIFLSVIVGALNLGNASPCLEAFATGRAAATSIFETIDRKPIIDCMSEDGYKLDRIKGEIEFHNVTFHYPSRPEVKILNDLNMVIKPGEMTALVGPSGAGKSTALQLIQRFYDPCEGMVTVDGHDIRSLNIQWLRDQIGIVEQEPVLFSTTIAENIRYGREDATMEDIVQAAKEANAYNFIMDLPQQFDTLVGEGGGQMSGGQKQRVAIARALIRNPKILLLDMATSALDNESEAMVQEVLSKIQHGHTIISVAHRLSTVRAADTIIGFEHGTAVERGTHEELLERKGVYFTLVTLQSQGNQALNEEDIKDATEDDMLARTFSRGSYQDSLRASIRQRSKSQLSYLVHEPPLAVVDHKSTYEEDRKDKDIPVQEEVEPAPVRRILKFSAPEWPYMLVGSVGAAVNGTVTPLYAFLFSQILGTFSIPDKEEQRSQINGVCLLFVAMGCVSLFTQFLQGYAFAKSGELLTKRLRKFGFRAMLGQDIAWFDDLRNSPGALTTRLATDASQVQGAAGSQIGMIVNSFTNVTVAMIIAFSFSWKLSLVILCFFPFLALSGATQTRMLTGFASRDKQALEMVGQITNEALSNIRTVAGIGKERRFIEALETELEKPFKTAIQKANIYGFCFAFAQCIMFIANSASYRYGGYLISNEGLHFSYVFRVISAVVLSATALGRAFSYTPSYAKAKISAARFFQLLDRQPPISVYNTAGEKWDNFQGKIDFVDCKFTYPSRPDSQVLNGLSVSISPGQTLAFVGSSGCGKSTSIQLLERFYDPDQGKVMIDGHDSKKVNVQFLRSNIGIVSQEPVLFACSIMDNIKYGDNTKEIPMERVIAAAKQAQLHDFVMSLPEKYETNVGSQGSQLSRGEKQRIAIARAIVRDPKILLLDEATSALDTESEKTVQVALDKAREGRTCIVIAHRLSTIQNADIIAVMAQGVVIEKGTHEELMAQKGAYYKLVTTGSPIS
Kind of series: Inhibition of ATP-dependent probe uptake in Sf9 membrane vesicles. Particulars: BSEP-mediated ATP-dependent uptake of taurocholic acid.

A short description of series [1]: Metabolism in cryopreserved human hepatocyte incubations.
Another series deals with T4, OCT1 (Homo sapiens, UniProt O15245).
T4 construct: expressed in transfected cells; host or cells: CHO-K1
T4 sequence (O15245 1-554): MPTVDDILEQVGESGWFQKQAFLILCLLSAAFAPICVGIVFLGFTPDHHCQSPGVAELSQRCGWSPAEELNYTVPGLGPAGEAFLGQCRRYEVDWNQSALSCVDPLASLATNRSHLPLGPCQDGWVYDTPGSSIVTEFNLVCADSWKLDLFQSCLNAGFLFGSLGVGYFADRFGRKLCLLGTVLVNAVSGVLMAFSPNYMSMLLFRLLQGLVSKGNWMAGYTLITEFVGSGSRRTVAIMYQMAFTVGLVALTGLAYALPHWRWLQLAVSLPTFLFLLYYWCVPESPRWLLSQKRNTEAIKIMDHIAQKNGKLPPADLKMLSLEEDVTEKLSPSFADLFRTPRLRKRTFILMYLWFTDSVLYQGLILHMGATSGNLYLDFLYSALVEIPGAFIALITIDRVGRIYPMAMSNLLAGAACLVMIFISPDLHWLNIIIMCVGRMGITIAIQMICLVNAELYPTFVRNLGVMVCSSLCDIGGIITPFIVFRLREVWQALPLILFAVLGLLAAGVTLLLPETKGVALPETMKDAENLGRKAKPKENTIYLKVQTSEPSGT
The series is described as follows: Inhibition of transporter-mediated probe uptake in CHO-K1-OCT1 cells.

Another series has as its target T5, BCRP (Homo sapiens, UniProt Q9UNQ0).
T5 sequence (Q9UNQ0 1-655): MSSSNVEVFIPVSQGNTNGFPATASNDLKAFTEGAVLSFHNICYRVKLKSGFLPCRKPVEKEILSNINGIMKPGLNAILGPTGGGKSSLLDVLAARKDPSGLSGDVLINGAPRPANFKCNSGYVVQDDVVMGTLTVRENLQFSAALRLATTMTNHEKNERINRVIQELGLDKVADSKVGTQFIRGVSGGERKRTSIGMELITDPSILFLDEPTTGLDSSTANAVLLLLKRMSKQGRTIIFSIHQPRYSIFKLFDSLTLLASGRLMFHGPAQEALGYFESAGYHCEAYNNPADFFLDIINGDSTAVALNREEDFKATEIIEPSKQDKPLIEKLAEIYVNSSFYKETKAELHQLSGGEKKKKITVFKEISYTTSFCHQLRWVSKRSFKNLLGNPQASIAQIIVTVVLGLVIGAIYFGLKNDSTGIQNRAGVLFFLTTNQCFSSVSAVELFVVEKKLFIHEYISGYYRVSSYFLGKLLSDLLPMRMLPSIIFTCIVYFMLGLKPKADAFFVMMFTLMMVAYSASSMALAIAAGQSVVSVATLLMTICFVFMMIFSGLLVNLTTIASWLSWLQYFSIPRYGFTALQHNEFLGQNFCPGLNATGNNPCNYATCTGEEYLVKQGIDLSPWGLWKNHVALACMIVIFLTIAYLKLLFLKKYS
Kind of series: Inhibition of BCRP-mediated methotrexate uptake in Sf9 membrane vesicles. Set-up: purchased Thermo Fisher Scientific; host or cells: Sf9.

Sequence of MDR1 P-gp (P08183 whole entry): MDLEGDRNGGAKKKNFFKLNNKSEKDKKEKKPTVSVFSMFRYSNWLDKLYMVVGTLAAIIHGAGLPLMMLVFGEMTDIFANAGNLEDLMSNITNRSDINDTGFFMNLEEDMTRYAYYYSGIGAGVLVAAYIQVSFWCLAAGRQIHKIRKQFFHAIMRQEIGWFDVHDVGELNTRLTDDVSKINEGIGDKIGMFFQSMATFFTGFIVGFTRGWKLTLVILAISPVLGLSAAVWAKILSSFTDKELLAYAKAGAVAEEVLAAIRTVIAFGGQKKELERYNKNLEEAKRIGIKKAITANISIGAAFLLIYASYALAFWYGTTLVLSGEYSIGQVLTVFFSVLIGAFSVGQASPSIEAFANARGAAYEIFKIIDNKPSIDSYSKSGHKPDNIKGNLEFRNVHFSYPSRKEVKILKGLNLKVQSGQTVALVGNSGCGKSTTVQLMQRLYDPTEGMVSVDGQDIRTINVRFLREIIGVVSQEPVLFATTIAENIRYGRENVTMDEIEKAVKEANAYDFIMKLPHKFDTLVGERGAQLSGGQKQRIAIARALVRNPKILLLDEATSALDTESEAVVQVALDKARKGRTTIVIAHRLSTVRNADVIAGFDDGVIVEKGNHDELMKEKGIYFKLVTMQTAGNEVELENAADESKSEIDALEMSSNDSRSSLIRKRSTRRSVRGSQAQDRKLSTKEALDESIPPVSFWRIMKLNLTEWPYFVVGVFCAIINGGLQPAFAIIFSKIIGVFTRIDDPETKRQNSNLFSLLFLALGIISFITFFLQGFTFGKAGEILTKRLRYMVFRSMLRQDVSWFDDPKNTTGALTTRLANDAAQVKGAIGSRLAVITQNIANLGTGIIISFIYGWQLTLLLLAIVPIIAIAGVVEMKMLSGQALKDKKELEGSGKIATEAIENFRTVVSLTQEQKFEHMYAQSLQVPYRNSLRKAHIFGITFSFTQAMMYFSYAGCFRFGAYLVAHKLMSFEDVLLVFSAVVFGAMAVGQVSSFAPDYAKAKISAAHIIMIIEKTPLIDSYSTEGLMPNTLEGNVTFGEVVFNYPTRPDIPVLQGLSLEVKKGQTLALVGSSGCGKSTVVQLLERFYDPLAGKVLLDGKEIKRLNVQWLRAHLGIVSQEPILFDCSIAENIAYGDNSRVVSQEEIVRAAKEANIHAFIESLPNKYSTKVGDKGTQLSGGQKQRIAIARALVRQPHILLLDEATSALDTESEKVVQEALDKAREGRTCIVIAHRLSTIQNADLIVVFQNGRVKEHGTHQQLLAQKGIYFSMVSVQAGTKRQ

Take `C#C[C@]1(CO)O[C@@H](n2cnc3c(N)nc(F)nc32)C[C@@H]1O` [Islatravir, 4′-Ethynyl-2-fluoro-2′-deoxyadenosine]: at CYP1A2 (CYP1A2, pre-incubation of 10 and 50 µM for up to 30 min), the time-dependent inhibition entry is recorded as “no time-dependent inhibition”. The “DDI Potential” value at CYP1A2 (CYP1A2 time dependent inhibition) is “Low risk ^h”; on MDR1 P-gp (MDR1 P-gp inhibition, FDA, EMA, PMDA guidance) it was “Low risk”; on UGT1A1 (UGT1A1 reversible inhibition, FDA, EMA, PMDA guidance) it was “Low risk ^g”; at OCT1 (OCT1 inhibition, FDA, EMA, PMDA guidance), “Low risk”; at BCRP (BCRP inhibition, FDA, EMA, PMDA guidance), “Low risk”. In addition, the IC50 at CYP1A2 (time dependent, CYP1A2, read-out: Islatravir IC50) is over 50 µM; at MDR1 P-gp (MDR1 P-gp-mediated digoxin transport, read-out: Islatravir IC50), over 200 µM; at UGT1A1 (reversible, UGT1A1 estradiol 3-glucuronidation, read-out: Islatravir IC50), over 100 µM; at BSEP it was over 100 µM; at OCT1 (OCT1-mediated uptake of metformin, read-out: Islatravir IC50) it was over 300 µM; on BCRP (BCRP-mediated methotrexate uptake, read-out: Islatravir IC50), over 100 µM. Besides, the “Maximum Unbound Plasma Concentration (Imax,u) to IC50 Ratio” value on MDR1 P-gp (MDR1 P-gp, 60 mg, Cmax 1.01 µM, fu,p 0.96) is under 0.005 µM; on BCRP (BCRP, 60 mg, Cmax 1.01 µM, fu,p 0.96), under 0.010 µM. Besides, the “Intestinal Concentration (Igut) to IC50 Ratio” value is reported as under 4.1 µM on MDR1 P-gp (MDR1 P-gp, Igut = 60 mg/250 mL = 818 µM) and under 8.2 µM at BCRP (BCRP, Igut = 60 mg/250 mL = 818 µM). Also, the “Intestinal Concentration (Igut) to Ki,u Ratio” value on UGT1A1 (UGT1A1 reversible, Igut = 60 mg/250 mL = 818 µM) is listed as under 16.4 µM. For the same compound, in series [1], the metabolites observed entry was “no detectable metabolites”. The “Maximum Unbound Inlet Concentration (Iin,max,u) to IC50 Ratio” value on OCT1 (OCT1, 60 mg dose) is given as under 0.035. Further, at BCRP (human, BCRP-containing Sf9 membrane vesicles, probe [3H]methotrexate, 100 µM islatravir, membrane vesicle assay), the inhibition at 5 min, 100 µM worked out at 35%.
